Source: patent publication US20230086703A1, “N-(4-(5-chloropyridin-3-yl)phenyl)-2-(2-(cyclopropanesulfonamido)pyrimidin-4-yl) butanamide derivatives and related compounds as human CTPS1 inhibitors for the treatment of proliferative diseases” (Step Pharma S.A.S., priority 2019, published 2023)

Columns and labels:
human CTPS1 [1] = biological target: T1, human CTPS1 (Homo sapiens, UniProt P17812); test: Human CTPS1 enzyme inhibition, ADP-Glo Max assay; assay type: biochemical; details: Table 12, ADP-Glo Max assay; read-out: CTPS1 (Human CTPS1 Enzyme Inhibition data grouped by potency range)
T1 construct: FLAG (with GG linker); His8 (with GG linker); purchased Proteros biostructures GmbH
T1 sequence (P17812 1-591): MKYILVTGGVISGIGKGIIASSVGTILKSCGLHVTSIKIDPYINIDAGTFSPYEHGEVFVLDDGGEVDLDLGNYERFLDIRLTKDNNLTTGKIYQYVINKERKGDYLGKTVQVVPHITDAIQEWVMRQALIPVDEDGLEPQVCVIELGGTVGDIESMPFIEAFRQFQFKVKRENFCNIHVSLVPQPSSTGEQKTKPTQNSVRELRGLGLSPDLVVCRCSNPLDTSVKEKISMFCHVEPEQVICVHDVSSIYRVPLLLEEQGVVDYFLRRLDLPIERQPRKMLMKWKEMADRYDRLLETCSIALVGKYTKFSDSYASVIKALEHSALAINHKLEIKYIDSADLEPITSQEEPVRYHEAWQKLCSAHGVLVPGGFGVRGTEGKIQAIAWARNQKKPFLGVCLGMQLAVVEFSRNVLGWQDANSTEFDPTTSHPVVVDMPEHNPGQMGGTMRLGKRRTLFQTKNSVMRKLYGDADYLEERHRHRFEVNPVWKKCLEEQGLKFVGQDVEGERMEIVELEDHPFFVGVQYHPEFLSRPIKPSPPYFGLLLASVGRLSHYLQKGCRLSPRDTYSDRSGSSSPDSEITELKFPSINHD
Outline: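 Read-out is ADP-Glo Max luminescence: residual ATP depleted (60 min), then produced ADP converted back to ATP for luciferase detection (60 min). Beforehand, protein and compound were mixed for 10 min at 25 °C in Tris buffer pH 8.0 with MgCl2, Tween-20 and 2 mM L-cysteine. Results expressed as percentage inhibition per concentration.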

human CTPS1 [2] = biological target: T1, human CTPS1; test: RapidFire/MS-based enzyme selectivity assay (human CTPS1 versus CTPS2), CTPS1 isoform; assay type: biochemical
Outline: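 Full-length C-terminal FLAG-His-tagged CTPS1 (1-591) was preincubated 10 min at 25 °C with compound in HEPES pH 8.0 buffer with MgCl2, KCl, DTT and Tween-20. Reactions were started with a 2× mix of ATP 0.3 mM, UTP 0.2 mM, GTP 0.07 mM and L-glutamine 0.1 mM, and run in the linear phase at 25 °C. IC50 comes from the RapidFire-MS ratio of CTP to 13C9-15N3-CTP.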

[3] = RapidFire/MS IC50 values of CTPS1 and CTPS2, Table 17
[4] = RapidFire/MS IC50 values of CTPS1 and CTPS2, Table 15
[5] = Table 16, human CTPS1 over human CTPS2, RapidFire/MS IC50 values

| SMILES | IC50 (human CTPS1 [1]) | Selectivity (fold selectivity between CTPS1 and CTPS2) (human CTPS1 [2]; [3]) | Selectivity (fold selectivity between CTPS1 and CTPS2) (human CTPS1 [2]; [4]) | Selectivity (fold selectivity between CTPS1 and CTPS2) (human CTPS1 [2]; [5]) |
| --- | --- | --- | --- | --- |
| CCOc1cncc(-c2ccc(NC(=O)C3(c4ccnc(NS(=O)(=O)C5CC5)n4)CCN(S(=O)(=O)CC)CC3)nc2)n1 [P289] | < 100 nM | +++ (>60 fold (+++)) | – | – |
| CCOc1cncc(-c2ccc(NC(=O)C3(c4ccnc(NS(=O)(=O)C5CC5)n4)CCC(N4CCCC4)CC3)nc2)n1 (stereo not drawn) [P302] | < 100 nM | +++ (>60 fold (+++)) | – | – |
| CCOc1cncc(-c2ccc(NC(=O)C3(c4ccnc(NS(=O)(=O)C5CC5)n4)CCC(N(C)CCOC)CC3)nc2)n1 (stereo not drawn) [P309] | 100 to 1000 nM | +++ (>60 fold (+++)) | – | – |
| CCOc1cncc(-c2ccc(NC(=O)C3(c4nccc(NS(=O)(=O)C5CC5)n4)CCN(CC#N)CC3)nc2)n1 [P294] | < 100 nM | +++ (>60 fold (+++)) | – | – |
| CCOc1cncc(-c2ccc(NC(=O)C3(c4ccnc(NS(=O)(=O)C5CC5)n4)CCN(S(=O)(=O)C4CC4)CC3)nc2)n1 [P290] | < 100 nM | +++ (>60 fold (+++)) | – | – |
| COC1CCC(C(=O)Nc2ccc(-c3cncc(C4CC4)n3)cn2)(c2ccnc(NS(=O)(=O)C3CC3)n2)CC1 (stereo not drawn) [P301] | < 100 nM | +++ (>60 fold (+++)) | – | – |
| CCOc1cncc(-c2ccc(NC(=O)C3(c4ccnc(NS(=O)(=O)C5CC5)n4)CCC(N(C)C4COC4)CC3)nc2)n1 (stereo not drawn) [P307] | < 100 nM | +++ (>60 fold (+++)) | – | – |
| CCOc1cncc(-c2ccc(NC(=O)C3(c4ccnc(NS(=O)(=O)CC)n4)CCN(S(=O)(=O)C4CC4)CC3)nc2)n1 [P299] | < 100 nM | +++ (>60 fold (+++)) | – | – |
| COC1CCC(C(=O)Nc2ccc(-c3cncc(C4CC4)n3)cn2)(c2ccnc(NS(=O)(=O)C3CC3)n2)CC1 (stereo not drawn) [P313] | < 100 nM | +++ (>60 fold (+++)) | – | – |
| CCOc1cncc(-c2ccc(NC(=O)C3(c4ccnc(NS(=O)(=O)C5CC5)n4)CCN(S(=O)(=O)C(F)(F)F)CC3)nc2)n1 [P292] | < 100 nM | +++ (>60 fold (+++)) | – | – |
| CCOc1cncc(-c2ccc(NC(=O)C3(c4ccnc(NS(=O)(=O)C5CC5)n4)CCN(S(=O)(=O)N(C)C)CC3)nc2)n1 [P291] | < 100 nM | +++ (>60 fold (+++)) | – | – |
| CS(=O)(=O)N1CCC(C(=O)Nc2ccc(-c3cncc(C4CC4)n3)cn2)(c2nccc(NS(=O)(=O)C3CC3)n2)CC1 [P315] | < 100 nM | +++ (>60 fold (+++)) | – | – |
| CCOc1cncc(-c2ccc(NC(=O)C3(c4nccc(NS(=O)(=O)C5CC5)n4)CCN(S(=O)(=O)CC)CC3)nc2)n1 [P318] | < 100 nM | +++ (>60 fold (+++)) | – | – |
| CCS(=O)(=O)N1CCC(C(=O)Nc2ccc(-c3cncc(C4CC4)n3)cn2)(c2nccc(NS(=O)(=O)C3CC3)n2)CC1 [P317] | < 100 nM | +++ (>60 fold (+++)) | – | – |
| CCOc1cncc(-c2ccc(NC(=O)C3(c4ccnc(NS(=O)(=O)C5CC5)n4)CCC(N4CCOCC4)CC3)nc2)n1 (stereo not drawn) [P305] | 100 to 1000 nM | +++ (>60 fold (+++)) | – | – |
| CCOc1cncc(-c2ccc(NC(=O)C(C)(CC)c3ccnc(NS(=O)(=O)C4CC4)n3)nc2)n1 (stereo not drawn) [P163, 2-(2-(cyclopropanesulfonamido)pyrimidin-4-yl)-N-(5-(6-ethoxypyrazin-2-yl)pyridin-2-yl)-2-methylbutanamide] | – | – | +++ (>60 fold (+++)) | – |
| CCC(C(=O)Nc1ccc(-c2cncc(C(F)(F)F)n2)cn1)c1ccnc(NS(=O)(=O)C2CC2)n1 (stereo not drawn) [P87, 2-(2-(cyclopropanesulfonamido)pyrimidin-4-yl)-N-(5-(6-(trifluoromethyl)pyrazin-2-yl)pyridin-2-yl)butanamide] | – | – | ++ (>30-60 fold (++)) | – |
| CCC(CC)(NC(=O)c1ccc(-c2cncc(C(F)(F)F)n2)cc1)c1csc(NS(=O)(=O)C2CC2)n1 [R19, N-(3-(2-(cyclopropanesulfon-amido)thiazol-4-yl)pentan-3-yl)-4-(6-(trifluoromethyl)pyrazin-2-yl)benzamide] | – | – | – | ++ (>30-60 fold (++)) |
| CCOc1cncc(-c2ccc(C(=O)NC(CC)c3csc(NS(=O)(=O)C4CC4)n3)c(F)c2)n1 (single isomer, unassigned) [R71, N-(1-(2-(cyclopropanesulfon-amido)thiazol-4-yl)propyl)-4-(6-ethoxypyrazin-2-yl)-2-fluorobenzamide] | – | – | – | +++ (>60 fold (+++)) |
| CCOc1cncc(-c2ccc(NC(=O)C3(c4cncc(NS(=O)(=O)C5CC5)n4)CCOCC3)nc2)n1 [P197, 4-(6-(cyclopropanesulfonamido)pyrazin-2-yl)-N-(5-(6-ethoxypyrazin-2-yl)pyridin-2-yl)tetrahydro-2H-pyran-4-carboxmaide] | – | – | +++ (>60 fold (+++)) | – |
| CCOc1cncc(-c2ccc(NC(=O)C3(c4ccnc(NS(=O)(=O)C5CC5)n4)CCCC3)cc2)n1 [P2, 1-(2-(Cyclopropanesulfonamido)pyrimidin-4-yl)-N-(4-(6-ethoxypyrazin-2-yl)phenyl)cyclopentanecarboxamide] | – | – | +++ (>60 fold (+++)) | – |
| CCOc1cncc(-c2ccc(NC(=O)C(C)(C)c3cncc(NS(=O)(=O)C4CC4)n3)cc2)n1 [P196, 2-(6-(cyclopropanesulfonamido)pyrazin-2-yl)-N-(4-(6-ethoxypyrazin-2-yl)phenyl)-2-methylpropanamide] | – | – | +++ (>60 fold (+++)) | – |
| CCOc1cncc(-c2ccc(NC(=O)C3(c4ccnc(NS(=O)(=O)C5CC5)n4)CCC(F)(F)CC3)nc2)n1 [P242] | – | +++ (>60 fold (+++)) | – | – |
| CCOc1cncc(-c2ccc(NC(=O)C3(c4ccnc(NS(=O)(=O)N(C)C)n4)CCOCC3)nc2)n1 [P248] | – | +++ (>60 fold (+++)) | – | – |
| CC(C)(NC(=O)c1ccc(-c2cncc(C(F)(F)F)n2)cc1)c1nc(NS(=O)(=O)C2CC2)sc1Cl [R79, N-(2-(5-chloro-2-(cycloprop-anesulfonamido)thiazol-4-yl)propan-2-yl)-4-(6-(trifluoromethyl)pyrazin-2-yl)benzamide] | – | – | – | + (2-30 fold (+)) |
| CCC(NC(=O)c1ccc(-c2cncc(C(F)(F)F)n2)cc1)c1csc(NS(=O)(=O)C2CC2)n1 (stereo not drawn) [R5, N-(1-(2-(cyclopropanesulfonamido)thiazol-4-yl)propyl)-4-(6-(trifluoromethyl)pyrazin-2-yl)benzamide] | – | – | – | + (2-30 fold (+)) |
| CCOc1cncc(-c2ccc(C(=O)NC(C)(C)c3nc(NS(=O)(=O)C4CC4)sc3C)c(F)c2)n1 [R74, N-(2-(2-(cyclopropanesulfon-amido)-5-methylthiazol-4-yl)propan-2-yl)-4-(6-ethoxypyrazin-2-yl)-2-fluorobenzamide] | – | – | – | ++ (>30-60 fold (++)) |
